In ChEMBL document CHEMBL1158673, “Bioactive kaurane diterpenoids from Annona glabra” (J Nat Prod, 1998):
In brackets after ≈: the same amount, converted by molar mass. Activity calls are given as the source filed them. The calls are words filed in the database; no cut-off is given here.

Key:
[1] = test system: Human immunodeficiency virus; assay: Inhibition of HIV reverse transcriptase at 33 ug/mL by scintillation counting
[2] = test system: Human immunodeficiency virus; assay: Antiviral activity against HIV infected in human H9 cells assessed as viral replication; format: functional, organism-based; settings: for EC50: Human immunodeficiency virus 1, H9
[3] = Therapeutic index, ratio of IC50 for human H9 cells to EC50 for HIV; format: cell-based; settings: for Activity: human, h9; for therapeutic index: H9
H9 = assay: Cytotoxicity against human H9 cells; format: cell-based

Q: With `C=C1C[C@@]23CC[C@@H]4[C@](C)(CO)CCC[C@@]4(C)[C@@H]2CC[C@H]1C3` as the molecule, how does the inhibition [1] read?
A: 7%

Q: Which Activity [2] does the source give for `CC1(C)CCC[C@]2(C)[C@@H]1CC[C@@]13C[C@H](CC[C@H]12)[C@@H](C(=O)O)C3` here?
A: inactive

Q: And the Activity [3]?
A: Not Active

Q: And the IC50 (H9)?
A: 40 µg/mL (≈ 131 µM)

Q: For `CC(=O)OC[C@]1(C)CCC[C@]2(C)[C@@H]1CC[C@@]13C[C@H](CC[C@H]12)[C@@H](C(=O)O)C3` [ANNOGLABASIN B], which Activity [2] is on record?
A: inactive

Q: And the Activity [3]?
A: Not Active

Q: What about the IC50 (H9) of the same molecule?
A: 40 µg/mL (≈ 110 µM)

Q: Which EC50 [2] does the source give for `COC(=O)[C@]1(OC(C)=O)C[C@@]23CC[C@H]4[C@@](C)(CCC[C@@]4(C)C=O)[C@@H]2CC[C@H]1C3` [ANNOGLABASIN A] here?
A: 10 µg/mL (≈ 25.6 µM)

Q: What about the therapeutic index [3] of the same molecule?
A: 1.5

Q: What about the IC50 (H9) of the same molecule?
A: 15 µg/mL (≈ 38.4 µM)

Q: With `Cc1cn([C@H]2C[C@H](N=[N+]=[N-])[C@@H](CO)O2)c(=O)[nH]c1=O` [ZIDOVUDINE] as the molecule, how does the EC50 [2] read?
A: 0.01 µg/mL (≈ 0.0374 µM)

Q: And the therapeutic index [3]?
A: 50000

Q: Which inhibition [1] does the source give for `C=C1C[C@@]23CC[C@H]4[C@@](C)(CCC[C@@]4(C)C(=O)O)[C@@H]2CC[C@@H]1C3` here?
A: 1%

Q: With `C[C@@]12CCC[C@@](C)(C=O)[C@H]1CC[C@@]13C[C@H](CC[C@H]12)[C@@H](C(=O)O)C3` as the molecule, how does the inhibition [1] read?
A: 14%

Q: Which EC50 [2] does the source give for `CC(=O)OC[C@]1(O)C[C@@]23CC[C@H]4[C@@](C)(CCC[C@@]4(C)C(=O)O)[C@@H]2CC[C@H]1C3` here?
A: 85 µg/mL (≈ 225 µM)

Q: And the therapeutic index [3]?
A: 0.8

Q: What about the IC50 (H9) of the same molecule?
A: 65 µg/mL (≈ 172 µM)

Q: With `COC(=O)[C@H]1C[C@@]23CC[C@H]4[C@@](C)(CCC[C@@]4(C)C=O)[C@@H]2CC[C@H]1C3` as the molecule, how does the EC50 [2] read?
A: 5 µg/mL (≈ 15 µM)

Q: What about the therapeutic index [3] of the same molecule?
A: 4

Q: And the IC50 (H9)?
A: 20 µg/mL (≈ 60.2 µM)

Q: With `C[C@@]12CCC[C@@](C)(C(=O)O)[C@H]1CC[C@@]13C[C@H](CC[C@H]12)[C@@](O)(CO)C3` as the molecule, how does the inhibition [1] read?
A: 46%

Q: With `CC1(C)CCC[C@]2(C)[C@@H]1CC[C@@]13C[C@H](CC[C@H]12)[C@H](C(=O)O)C3` as the molecule, how does the EC50 [2] read?
A: 24 µg/mL (≈ 78.8 µM)

Q: What about the therapeutic index [3] of the same molecule?
A: 1.3

Q: And the IC50 (H9)?
A: 32 µg/mL (≈ 105 µM)
